Source: patent US10100077B2, “6-aryl-9-glycosylpurines and use thereof” (UNIVERZITA PALACKEHO V OLOMOUCI, priority 2014, dated 2018)

Tests used:
[1] = system: Normal human dermal fibroblasts (NHDF); assay: In vitro phototoxicity test (UVA, neutral red); assay type: cell-based; details: UVA 5.0 J/cm^2, 0.9-125 μmol/l or 3.9-500 μmol/l, neutral red after 24 hours
Protocol: Phototoxic potential of test compound was determined by modified in vitro test validated phototoxicity evaluation (Spielmann H, Balls M, Dupuis J, Pape W J, Pechovitch G, de Silva O, Holzhater H G, Clothier R, Desolle P, Gerberick F, Liebsch M, Lovell W W, Maurer T, Pfannenbecker U, Potthast J M, Csato M, Sladowski D, Steiling W, Brantom P., Toxicol In Vitro. 1998 Jun. 1; 12(3):305-27). Normal human dermal fibroblasts (NHDF) were used as an in vitro model. Cells were isolated from tissue specimens obtained from healthy patients undergoing plastic surgery at the Department of Plastic and Aesthetic Surgery (University Hospital Olomouc). The use of skin tissue was in accordance with the Ethics Committee of the University Hospital and Faculty of Medicine and Dentistry, Palacký University, Olomouc and all patients signed written informed consent. Fibroblasts were used between the 2nd and 4th passage. […]
Test compound was 6-(3-methoxybenzylamino)-9-β-D-arabinofuranosylpurine. […] Intensity of UVA radiation was evaluated before each irradiation by UVA-meter. […] After 24 hours (37° C., 5% CO2) cell damage was evaluated by neutral red (NR) incorporation into viable cells. […] After 5 minutes of intensive shaking absorbance was measured at 540 nm. […] Phototoxic effect was evaluated as % of viability of control cells that was calculated from experimental data (absorbance) according to the following equation: […]

[2] = system: Normal human dermal fibroblasts (NHDF); assay: In vitro UVA photoprotection test (neutral red); assay type: cell-based; details: UVA 7.5 J/cm^2, 0.9; 1.8; 3.9 a 7.8 μmol/l, 60 minutes pre-incubation
Text: Normal human dermal fibroblasts (NHDF) were used as an in vitro model. Cells were isolated from tissue specimens obtained from healthy patients undergoing plastic surgery at the Department of Plastic and Aesthetic Surgery (University Hospital Olomouc). The use of skin tissue was in accordance with the Ethics Committee of the University Hospital and Faculty of Medicine and Dentistry, Palacký University, Olomouc and all patients signed written informed consent. Fibroblasts were used between the 2nd and 4th passage. For all experiments the fibroblasts were seeded onto 96-well plates at a density of 0.8×10^5 cells/ml (0.2 ml per well) of cultivation medium (DMEM supplemented with foetal calf serum (10%, v/v), penicillin […] and streptomycin (100 U/ml)).
Test compounds included 6-(3-methoxybenzylamino)-9-β-D-arabinofuranosylpurine. […] Intensity of UVA or UVB radiation was evaluated before each irradiation by UVA- or UVB-meter. […] After 24 hours (37° C., 5% CO2) cell damage was evaluated by neutral red (NR) incorporation into viable cells. […] After 5 minutes of intensive shaking absorbance was measured at 540 nm. […] Photoprotective effect was evaluated by comparison of experimental data (absorbance) of test compounds with a positive control and a negative control (according to the following equation: […]

Compound: COc1cccc(CNc2ncnc3c2ncn3[C@@H]2O[C@H](CO)[C@@H](O)[C@@H]2O)c1 [6-(3-methoxybenzylamino)-9-β-D-arabinofuranosylpurine]
- phototoxic effect (viability after UVA) [1]: non-phototoxic
- viability after UVA vs DMSO control (photoprotection) [2]: higher viability
